Test results published in patent publication US20160311914A1, “USE OF B LYMPHOCYTE STIMULATOR PROTEIN ANTAGONISTS TO PROMOTE TRANSPLANTATION TOLERANCE” (The Trustees of the University of Pennsylvania, priority 2009, published 2016).

What was measured:
[1] = test system: Streptozotocin-treated diabetic B6 mice transplanted with BALB/c islets; assay: Islet allograft survival, BALB/c islets transplanted into Streptozotocin-treated diabetic B6 mice; format: in vivo, mouse; settings: FIG. 3
Description: (§1) FIG. 1 is a timeline detailing the administration of anti-B Lymphocyte Stimulator (anti-BLys™) antibodies and Rapamycin in Streptozotocin-treated diabetic mice transplanted with islets from another mouse strain.
(§2) FIG. 3 is a graph illustrating the percent survival (y-axis) versus time in days (x-axis) for Streptozotocin-treated diabetic B6 mice transplanted with BALB/c islets. Mice were administered Rapamycin (Rapa) (-□-); anti-B Lymphocyte Stimulator (anti-BLys™) antibodies and Rapamycin (anti-BLys™/Rapa) (-Δ-); or neither (no treatment; control) (-⋄-) in accordance with the timeline set forth in FIG. 1.
(§3) BLyS™ regulates mature B-lymphocyte survival and negative selection at the transitional to follicular (TR:FO) tolerance checkpoint. To determine the effect of BLyS™ in an in vivo allograft model, murine islet cells from B6 and BALB/c donor mice were transplanted into Streptozotocin-treated diabetic BALB/c and B6 mice, respectively. The recipient mice were treated with a regimen consisting of a B-lymphocyte depleting dose of a neutralizing anti-BLyS™ mAb (100 μg) on days 10 and 1 post-transplantation, followed by a weekly maintenance taper (50 μg×2 wks, 25 μg×2 wks, 10 μg×2 wks, and 5 μg×2 wks). Starting on the day of islet transplantation, the Streptozotocin treated diabetic recipients were treated with 0.5 mg/kg Rapamycin every other day for two weeks.

[2] = test system: Streptozotocin-treated diabetic BALB/c mice transplanted with B6 islets; assay: Islet allograft survival, B6 islets transplanted into Streptozotocin-treated diabetic BALB/c mice; format: in vivo, mouse; settings: FIG. 2
Description: as §1
as §2, with “2” for “3”, “BALB/c” for “B6”, “B6” for “BALB/c”
as §3

## CO[C@H]1C[C@@H]2CC[C@@H](C)[C@@](O)(O2)C(=O)C(=O)N2CCCC[C@H]2C(=O)O[C@H]([C@H](C)C[C@@H]2CC[C@@H](O)[C@H](OC)C2)CC(=O)[C@H](C)/C=C(\C)[C@@H](O)[C@@H](OC)C(=O)[C@H](C)C[C@H](C)/C=C/C=C/C=C/1C [Rapamycin]
[1]
  mean survival time (MST): 39 days
[2]
  mean survival time (MST): 61 days
